Experimental data published in patent publication US10906909B2, “Treatment of cognitive and mood symptoms in neurodegenerative and neuropsychiatric disorders with ALPHA5-containing GABAA receptor agonists” (UWM Research Foundation, Inc., priority 2016, dated 2021).
Entries after “also recorded” stand apart in the source; their conditions may differ.

Key:
[1] = Human liver microsome stability assay; format: in vitro ADME; settings: 10 μM compound; for half-life at 10 μM: human, liver microsomes, read-out: Half-life (min) (HumanLM)
Experimental: (§1) Human and mouse liver microsomes were obtained fom BD Gentest.
(§2) Each evaluation included six independent assays carried out three at a time, on two different days
(§3) 2. For a total volume of Microsomal Assay Mixture (MAM) 390 μL, sufficient for seven time points, combine the following
(§4) 3. Sonicate MAM for 5 min and meanwhile thaw microsomes (20 mg/mL) (BD Gentest, Cat #452156) on ice.
(§5) 4. Aliquot 100 μL of ice cold ISTD into 7 separate 1.5 mL conical vials and label them the time points for 0, 10, 20, 40, 60, 90, and 120 min.
(§6) 5. Arrange the timer. Microsomes (Final concentration of 0.5 mg/mL) should be added to all time points except the zero time point.
(§7) 6. Add 50 μL of the MAM solution to the conical vial labelled as zero time point. Place the remaining MAM solution in the incubator (37° C.) for 5 min and initiate the reaction with addition of microsomes (8.8 μL) and record the time.
(§8) 7. At the end of each time interval remove 50 μL and add 100 μL to ISTD in conical vial, sonicate for 10 sec and spin down at 10,000 rpm for 5 minutes.
(§9) 8. Take 100 μL of supernatant and transfer to Spin-X HPLC filter tubes (Corning Incorporated, Cat #8169) and centrifuge at 13,000 rpm for 5 minutes and take 5 μL from this solution and dilute in 495 μL of LCMS grade methanol (Fischer scientific, CAS #67-56-1) in an 2 mL glass auto sampler vial (Microsolv, Cat #95025-WCV) 9. The samples are analyzed by LCMS-8040. (Shimadzu)
(§10) Calculation: From the peak area, calculate the following
(§11) The compounds are tested for the metabolic stability in the Human and Mouse Liver microsomes at 10 μM concentration.

[2] = Mouse liver microsome stability assay; format: in vitro ADME; settings: 10 μM compound; for half-life at 10 μM: mouse, liver microsomes, read-out: Half-life (min) (MouseLM)
Experimental: as §1, §2, §3, §4, §5, §6, §7, §8, §9, §10, §11

[3] = Pharmacokinetics in mice (plasma, liver, brain); settings: i.p. dosing at 3 mg/kg
[4] = system: Female Swiss Webster mice; assay: Rotarod sensorimotor / locomotor coordination; format: in vivo, mouse; settings: 40 mg/kg oral gavage; 15 rpm, 3 min; 10, 30, 60 min after dosing
Experimental: Female Swiss Webster mice (10 weeks of age) from Charles River Laboratory, WIL, MA were used for the experiments. The animals were housed under specific pathogen-free conditions, under standard conditions of humidity, temperature and a controlled 12 h light and dark cycle and had free access to food and water. The sensorimotor rotarod test was carried out 10, 30 and 60 minutes after the injection. Mice were tested on a rotarod at 15 rpm for maximum 3 min and the time of fall was recorded. Falling before the 3 minutes period of testing assesses of locomotor coordination impairment induced by the compound.
Mice (N=10/group) received a single administration via oral gavage of test compound (40 mg/kg), diazepam (5 mg/kg), or vehicle (2% polyethylene glycol, 2.5% hydroxypropylmethyl cellulose solution).

[5] = system: mice subjected to chronic restraint stress (CRS); assay: Y-maze alternation task, chronic restraint stress (CRS) mice; format: in vivo, mouse; settings: for effect on CRS-induced working memory deficit (percent alternation rate, Y-maze): 10 mg/kg i.p. 30 min before testing; for Alternation rate (%): Dose 10 mg/kg
Experimental: C57/B16 mice, males and females were ordered from Jackson Laboratories at 8 weeks old and were kept in normal housing conditions (12 h light ON cycle starting at 7 am/water and food ad libitum) for one week. During this week, animals were single housed and handled to reduce the anxiety-like response toward the experimenter. To induce a working memory deficit, mice were subjected to a chronic restraint stress protocol (CRS). They were placed in a 50 ml Falcon® tube, twice a day, for 1 hour during their diurnal cycle. The time of occurrence of the stress was randomized every day to avoid predictability. CRS was not applied on testing days. Y-maze test occurred 15 hours minimum after the last stressor.
Mice were first habituated to the Y-maze apparatus and distal cues during 2 consecutive days over a 10 min free exploration session (one session per day). The next day, animals performed a training session consisting in seven successive trials separated by a 30 s inter-trial interval (ITI); during this training session, mice were familiarized with the experimental procedure (opening and closing of the doors and confinement into the goal arms). For each trial, mice remained in the start-box for a 30 s ITI. Then, the door was opened and the mouse was allowed to enter freely one of the two goal arms; the chosen arm was closed and the choice was recorded. After a 30 s confinement period into the chosen arm, the mouse was removed and brought back to the start-box for a second trial identical to the first one and this procedure was repeated over the series of trials.
The same general procedure used in the training session was implemented 24 h later, except that the ITI was lengthened to 90 s. For this experiment, animals were acutely injected i.p. with vehicle or αPAM, 30 minutes before the beginning of the test. To dissociate memory deficits from an eventual progressive loss of motivation to alternate over the series, an 8th trial was added to the series which was separated from the 7th trial by a shorter ITI (5 s). All animals failing to alternate at the 8th trial were excluded. The mean alternation rate was calculated and was expressed in percentage (number of alternation done by the animal/total number of alternation possible×100)±SEM. The percentage of alternation during the entire task is considered as an index of working memory performance (50% of being a random alternation rate). Factorial ANOVA was applied to the data to reveal differences between groups. If the ANOVA was significant for group effect (p<0.05), Scheffe post-hoc analysis were conducted to identify which groups are different from each other.
All drugs were diluted in a vehicle solution containing 85% H2O, 14% propylene glycol (Sigma Aldrich) and 1% Tween 80 (Sigma Aldrich). Working solutions were prepared at a concentration of 10 mg/mL and administered i.p. adjusted to the body weight of each animal. Doses used were either 1, 5, 10 or 20 mg/kg. For all Y maze experiments, animals were acutely injected i.p. with vehicle or αPAM, 30 minutes before the beginning of the test.

HEK293 = assay: Cytotoxicity assay (CellTiter-Glo), HEK293; format: cell-based, human; settings: 48 hours incubation
Experimental: (§12) Human liver hepatocellular carcinoma (HEPG2) and human embryonic kidney 293 (HEK293) cell lines were purchased (ATCC) and cultured in 75 cm2 flasks (CellStar). Cells were grown in DMEM/High Glucose (Hyclone, #SH3024301) media to which non-essential amino acids (Hyclone, #SH30238.01), 10 mM HEPES (Hyclone, #SH302237.01), 5×106 units of penicillin and streptomycin (Hyclone, #SV30010), and 10% of heat inactivated fetal bovine serum (Gibco, #10082147) were added. Cells were harvested using 0.05% Trypsin (Hyclone, #SH3023601), washed with PBS, and dispensed into sterile white, optical bottom 384-well plates (NUNC, #142762). After three hours, small molecule solutions were transferred with a Tecan Freedom EVO liquid handling system equipped with a 100 nL pin tool (V&P Scientific). The controls (E)-10-(bromotriphenylphosphoranyl)decyl 4-(4-(tert-butyl)phenyl)-4-oxobut-2-enoate (400 μM in DMSO, positive control) and DMSO (negative control). The cells were incubated for 48 hours followed by the addition of CellTiter-Glo™, a luminescence-based cell viability assay (Promega, Madison, Wis.). All luminescence readings were performed on a Tecan Infinite M1000 plate reader. The assay was carried out in quadruplet with three independent runs. The data was normalized to the controls and analyzed by nonlinear regression (GraphPad Prism).

HEPG2 = assay: Cytotoxicity assay (CellTiter-Glo), HEPG2; format: cell-based, human; settings: 48 hours incubation
Experimental: as §12

C57B1/6 male mice = assay: Forced swim test (FST); format: in vivo, mouse; settings: 10 mg/kg i.p. 24, 20, 1 hour before testing; vs vehicle
Experimental: C57B1/6 male mice were ordered from Jackson Laboratories at 8 weeks-old and were group housed (4-5 mice/cage) under normal housing conditions (12 h light ON cycle starting at 7 am/water and food ad libitum) for one week. During this week, animals were handled in order to habituate them to the experimenter and to reduce their anxiety-like response during behavioral testing.
All drugs were diluted in a vehicle solution containing 85% H2O, 14% propylene glycol (Sigma Aldrich) and 1% Tween 80 (Sigma Aldrich). Working solutions were prepared at a concentration of 20 mg/mL and administered i.p. adjusted to the body weight of each animal. Doses used were either 1, 5 or 10 mg/kg. For all FST experiments, animals were injected i.p. with vehicle or αPAM.
Mice were tested in the forced swim test (FST) (measure of despair-like behavior used for the assessment of antidepressant efficacy). Animals were sub-chronically injected three times (24, 20 and 1 hour before testing) as per standard methods in the field for testing potential antidepressant compounds.
One hour after the last injection, mice were placed in an inescapable transparent tank filled with water (25 cm, 25-26° C.), where they are unable to touch the bottom and unable to jump out of the tank. Animal were recorded for a period of 6 minutes and a manual count of the immobile time in the tank was measured for the 2-6 minutes period by an experimenter blinded to the mouse treatment history. Immobility is defined as the minimum amount of movement to stay afloat. Compounds that reduced immobility in the FST are considered to have potential antidepressant actions.

## C#Cc1ccc2c(c1)C(c1ccccc1F)=N[C@@H](C)c1c(-c3nc(C)no3)ncn1-2 [GL-I-65, (S)-5-(8-ethynyl-6-(2-fluorophenyl)-4-methyl-4H-benzo[f]imidazo[1,5-a][1,4]diazepin-3-yl)-3-methyl-1,2,4-oxadiazole]
[1]
  Half-life (min) (HumanLM): 866 ± 213 min
  % left after 2 hr. (Human LM): 86.4 ± 0.3%
[2]
  Half-life (min) (MouseLM): 443 ± 67 min
  % left after 2 hr. (MouseLM): 81.0 ± 0.4%
[3]
  molar concentration range reached in mouse brain tissue: moderate to high submicromolar concentrations
[4]
  sensorimotor impairment on rotarod (time of fall): no sensorimotor impairment
[5]
  effect on CRS-induced working memory deficit (percent alternation rate, Y-maze): significant reversal of CRS-induced impairment in working memory; also recorded: increase in alternation rate

## C#Cc1ccc2c(c1)C(c1ccccn1)=N[C@H](C)c1c(C(=O)NC)ncn1-2 [GL-II-31, (R)-8-ethynyl-N,4-dimethyl-6-(pyridin-2-yl)-4H-benzo[f]imidazo[1,5-a][1,4]diazepine-3-carboxamide]
[1]
  half-life at 10 μM: 1870 ± 765 min
[2]
  half-life at 10 μM: 1840 ± 590 min
HEK293
  HEK293 LD50: >400 µM
HEPG2
  HEPG2 LD50: >400 µM
[3]
  molar concentration range reached in mouse brain tissue: moderate to high submicromolar concentrations
[4]
  sensorimotor impairment on rotarod (time of fall): no sensorimotor impairment
[5]
  Alternation rate (%): 56.6%

## C#Cc1ccc2c(c1)C(c1ccccn1)=N[C@H](C)c1c(-c3nc(C)no3)ncn1-2 [GL-II-33, (R)-5-(8-ethynyl-4-methyl-6-(pyridin-2-yl)-4H-benzo[f]imidazo[1,5-a][1,4]diazepin-3-yl)-3-methyl-1,2,4-oxadiazole]
[1]
  half-life at 10 μM: 2590 ± 1110 min
[2]
  % left after 2 hr. (MouseLM): 82.0 ± 0.3%
  half-life at 10 μM: 500 ± 66 min
HEK293
  HEK293 LD50: >400 µM
HEPG2
  HEPG2 LD50: >400 µM
[3]
  molar concentration range reached in mouse brain tissue: moderate to high submicromolar concentrations
[4]
  sensorimotor impairment on rotarod (time of fall): no sensorimotor impairment
[5]
  effect on CRS-induced working memory deficit (percent alternation rate, Y-maze): a trend in the reversal of CRS-induced impairment in working memory; also recorded: a trend was detected

## Cc1noc(-c2ncn3c2[C@@H](C)N=C(c2ccccn2)c2cc(Br)ccc2-3)n1 [GL-II-54, (R)-5-(8-bromo-4-methyl-6-(pyridin-2-yl)-4H-benzo[f]imidazo[1,5-a][1,4]diazepin-3-yl)-3-methyl-1,2,4-oxadiazole]
[1]
  % left after 2 hr. (Human LM): 76.0 ± 0.2%
  half-life at 10 μM: 404 ± 61 min
[2]
  half-life at 10 μM: 2330 ± 1110 min
HEK293
  HEK293 LD50: >400 µM
HEPG2
  HEPG2 LD50: >400 µM
[3]
  molar concentration range reached in mouse brain tissue: high submicromolar to low micromolar values
C57B1/6 male mice
  time spent immobile in the FST: significant decrease in immobility time; also recorded: significant antidepressant-like action
[4]
  sensorimotor impairment on rotarod (time of fall): no sensorimotor impairment
[5]
  Alternation rate (%): 66.66%

## C#Cc1ccc2c(c1)C(c1ccccc1F)=NCc1c(-c3nc(C)no3)ncn1-2 [GL-III-23, 5-(8-ethynyl-6-(2-fluorophenyl)-4H-benzo[f]imidazo[1,5-a][1,4]diazepin-3-yl)-3-methyl-1,2,4-oxadiazole]
[1]
  % left after 2 hr. (Human LM): 82.0 ± 0.3%
  half-life at 10 μM: 504 ± 77 min
[2]
  half-life at 10 μM: 1320 ± 316 min
HEK293
  HEK293 LD50: >100 µM
HEPG2
  HEPG2 LD50: >100 µM
[3]
  molar concentration range reached in mouse brain tissue: micromolar concentrations
[5]
  Alternation rate (%): 56.6%
